Read-outs that look alike come from different tables or passages of the source.
Test: Tissue concentrations of Formula I and its metabolites in Göttingen pigs after a single oral or intravenous dose (LC-MS/MS)
Assay type: in vivo
Details: for concentration at 2 h / concentration at 12 h / concentration at 3 h / concentration at 24 h: both sexes, Göttingen, pig (minipig); for concentration at 2 h: 2 hpd; for concentration at 3 h: 3 hpd; for concentration at 24 h: 24 hpd
Procedure: Tissue samples were collected at 3, 12, and 24 hours post-dose (hpd) for the oral dose and 2 and 12 hpd for the intravenous dose, snap-frozen in liquid nitrogen, and stored at −60 to −90° C. until shipment on dry ice for analysis by LC-MS/MS.
Animals were weighed the day prior to dosing to determine the dosing volume.
The compound of Formula I was dissolved in a PEG 400/DI water (60%/40% v/v) vehicle for oral dosing. For IV dosing the compound of Formula I was dissolved in a PEG 400/Cremophor RH 40/Saline (40%/10%/50% v/v) vehicle and passed through a sterile filter. […] Animals were euthanized by euthanasia solution administration under sedation, if necessary (e.g., acepromazine and or/Telazol®), followed by a Testing Facility SOP approved method to ensure death (e.g., exsanguination). Tissues were collected from two animals per sex per timepoint. Tissue samples, including the brain, heart, kidney, liver, lung, spleen, pancreas, bone marrow, duodenum, jejunum, and colon, were collected in duplicate (approximately 50±20 mg each) and placed into two separate reinforced homogenization tubes per organ (one tissue sample per tube). The exact weight (in milligrams) of each sample was recorded. Tissues samples were flash frozen in liquid nitrogen and stored at −60 to −90° C. until shipment on dry ice for analysis by LC-MS/MS.
Mobile phase A consisted of 50 mM ammonium bicarbonate buffer in HPLC grade water pH 9.8 and mobile phase B consisted of pure acetonitrile. […] Mass spectrometry analysis was performed on a QTrap 7500 Mass Spectrometer (Sciex, Framingham, MA, USA) using negative mode electrospray ionization (ESI) in multiple reaction monitoring (MRM) mode. Data analysis was performed using SCIEX OS Software (Sciex, Framingham, MA, USA).
Tissue samples were collected at 3, 12, and 24 hours post-dose for the oral dose and 2 and 12 hour post-dose for the intravenous dose.

[1] = 2-3 hours after IV 25 mg/kg or PO 125 mg/kg dosing
[2] = brain, single oral dose of Formula I 125 mg/kg, read-out: Tissue concentration, brain
[3] = heart, single oral dose of Formula I 125 mg/kg, read-out: Tissue concentration, heart
[4] = kidney, single oral dose of Formula I 125 mg/kg, read-out: Tissue concentration, kidney
[5] = liver, single oral dose of Formula I 125 mg/kg, read-out: Tissue concentration in Göttingen pig liver (Table 7)
[6] = liver, single oral dose of Formula I 125 mg/kg, read-out: Tissue concentration, liver
[7] = lung, single oral dose of Formula I 125 mg/kg, read-out: Tissue concentration, lung
[8] = spleen, single oral dose of Formula I 125 mg/kg, read-out: Tissue concentration, spleen

## C[C@@]1(O)[C@H](O)[C@@H](CO)O[C@H]1n1ccc(=O)[nH]c1=S [Formula VI]
[1]
  Brain level, additional fold lower than heart, lung and spleen: approximately 10 fold
  Kidney and liver levels relative to heart, lung and spleen (fold higher): approximately 10 fold
24 hpd after oral dose, all organs
  Additional decrease of levels in all organs: 2-3 fold
12 hours post oral dose, all organs
  Decrease of levels in all organs: 4-6 fold
brain, single intravenous bolus of Formula I 25 mg/kg, read-out: Tissue concentration, brain
  concentration at 2 h: 140 ± 56.7 ng/g
brain, single intravenous bolus of Formula I 25 mg/kg, 12 hpd, read-out: Tissue concentration, brain
  concentration at 12 h: 6.4 ± 12.8 ng/g
[2]
  concentration at 3 h: 192 ± 77.9 ng/g
  concentration at 24 h: 37.9 ± 9.15 ng/g
brain, single oral dose of Formula I 125 mg/kg, 12 hpd, read-out: Tissue concentration, brain
  concentration at 12 h: 111 ± 38.6 ng/g
heart, single intravenous bolus of Formula I 25 mg/kg, read-out: Tissue concentration, heart
  concentration at 2 h: 1990 ± 195 ng/g
heart, single intravenous bolus of Formula I 25 mg/kg, 12 hpd, read-out: Tissue concentration, heart
  concentration at 12 h: 57.3 ± 23.3 ng/g
[3]
  concentration at 3 h: 3370 ± 645 ng/g
  concentration at 24 h: 240 ± 27.7 ng/g
heart, single oral dose of Formula I 125 mg/kg, 12 hpd, read-out: Tissue concentration, heart
  concentration at 12 h: 533 ± 213 ng/g
kidney, single intravenous bolus of Formula I 25 mg/kg, read-out: Tissue concentration, kidney
  concentration at 2 h: 25400 ± 5560 ng/g
kidney, single intravenous bolus of Formula I 25 mg/kg, 12 hpd, read-out: Tissue concentration, kidney
  concentration at 12 h: 701 ± 48.7 ng/g
[4]
  concentration at 3 h: 29400 ± 2170 ng/g
  concentration at 24 h: 2740 ± 503 ng/g
kidney, single oral dose of Formula I 125 mg/kg, 12 hpd, read-out: Tissue concentration, kidney
  concentration at 12 h: 7420 ± 1440 ng/g
liver, single intravenous bolus of Formula I 25 mg/kg, read-out: Tissue concentration, liver
  concentration at 2 h: 7960 ± 1530 ng/g
liver, single intravenous bolus of Formula I 25 mg/kg, 12 hpd, read-out: Tissue concentration, liver
  concentration at 12 h: 201 ± 126 ng/g
[5]
  concentration at 3 h: 66.3 ± 23.7 µM
  concentration at 24 h: 4.08 ± 1.84 µM
[6]
  concentration at 3 h: 18200 ± 6500 ng/g
  concentration at 24 h: 1120 ± 505 ng/g
liver, single oral dose of Formula I 125 mg/kg, 12 hpd, read-out: Tissue concentration in Göttingen pig liver (Table 7)
  concentration at 12 h: 9.46 ± 5.56 µM
liver, single oral dose of Formula I 125 mg/kg, 12 hpd, read-out: Tissue concentration, liver
  concentration at 12 h: 2600 ± 1530 ng/g
lung, single intravenous bolus of Formula I 25 mg/kg, read-out: Tissue concentration, lung
  concentration at 2 h: 2330 ± 130 ng/g
lung, single intravenous bolus of Formula I 25 mg/kg, 12 hpd, read-out: Tissue concentration, lung
  concentration at 12 h: 93.9 ± 18.8 ng/g
[7]
  concentration at 3 h: 3580 ± 1060 ng/g
  concentration at 24 h: 242 ± 85.7 ng/g
lung, single oral dose of Formula I 125 mg/kg, 12 hpd, read-out: Tissue concentration, lung
  concentration at 12 h: 536 ± 101 ng/g
spleen, single intravenous bolus of Formula I 25 mg/kg, read-out: Tissue concentration, spleen
  concentration at 2 h: 1620 ± 181 ng/g
spleen, single intravenous bolus of Formula I 25 mg/kg, 12 hpd, read-out: Tissue concentration, spleen
  concentration at 12 h: 49.2 ± 9.7 ng/g
[8]
  concentration at 3 h: 3010 ± 433 ng/g
  concentration at 24 h: 292 ± 139 ng/g
spleen, single oral dose of Formula I 125 mg/kg, 12 hpd, read-out: Tissue concentration, spleen
  concentration at 12 h: 539 ± 195 ng/g
Each organ, 12 hpd, IV 25 mg/kg vs PO 125 mg/kg
  12 hpd levels after IV dosing, fold lower than corresponding levels after PO dosing: approximately 10 fold
